Reference: PubChem BioAssay (NCI)
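Method: 48-hour compound exposure of cells in 96-well plates, five concentrations, linear interpolation of endpoints. GI50 = concentration required for 50% inhibition of growth. TGI: concentration producing complete growth inhibition.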

Tested on: MDA-MB-468 breast
Assay: NCI anticancer screen, dose series, 48 h

| SMILES | GI50 [nM] | TGI [nM] |
| --- | --- | --- |
| Nc1nc(N(Cc2ccccc2)c2ccccc2)c2cn[nH]c2n1 | 1960 | 6330 |
| Cc1ccc(C(=O)NC(C)C)cc1-c1ccc(C(=O)NCC2CC2)cc1 | > 25000 | > 25000 |
| COc1cc[nH]c1/C=C1\C(=O)Nc2ccc(F)c(C#CC3(O)CCNCC3)c21 | 123 | 600 |
| CC1(C)OC2=C(CC1Br)C(=O)C(=O)c1ccccc12 (centres undefined) | 1450 | 2820 |
| COc1ccc(-c2onc(N)c2-c2cc(OC)c3c(c2)OCO3)cc1 | 644 | 3150 |
| CC/C=C\C[C@@H](O)C/C=C1/C(=O)C=C[C@H]1C/C=C\CCCC(=O)OC | 2120 | 4790 |
| O=C1Nc2ccccc2C1(c1ccc(O)cc1)c1ccc(O)cc1 | 227 | 14100 |
| Nc1nc2c(nnn2C2CC(O)C(CO)O2)c(=O)[nH]1 (centres undefined) | 825 | 7200 |
| Cc1ccc(C(=O)N(CCCN)C(c2oc3cc(Cl)ccc3c(=O)c2Cc2ccccc2)C(C)C)cc1 (centres undefined) | < 10 | 904 |
| CN(C)CCCOc1ccc(C(=C(c2ccccc2)C2CCCC2)c2ccc(OCCCN(C)C)cc2)cc1 | 1710 | 3970 |
| O=C(CCc1nnc2sc(-c3ccc(Cl)cc3Cl)nn12)c1nc2ccccc2[nH]1 | 466 | 1490 |
| CCCCCCCC[C@@H](O)CC(=O)N[C@@H](CC(N)=O)C(=O)N[C@@H](CCC(N)=O)C(=O)N[C@@H](CC(=O)c1cc(C)cc(O)c1C(=O)c1c(O)cccc1O)CC(C)C | 401 | 3140 |
| COC(=O)Nc1nc2ccc(Oc3ccc(NC(=O)Nc4cc(C(F)(F)F)ccc4F)cc3)cc2s1 | 9110 | > 25000 |
| CC(C)(O)c1cncc(-c2ccc3ncnc(N4CCc5cc(F)c(Cl)cc54)c3c2)c1 | 567 | 3500 |
| CS(=O)(=O)CCNCc1ccc(-c2ccc3ncnc(Nc4ccc(OCc5ccccc5)cc4)c3c2)o1 | 146 | 1620 |
| O=C(O)/C=C(\c1nc2ccc([N+](=O)[O-])cc2[nH]1)c1cc(Cl)ccc1O | 2090 | 9960 |
| COc1ccc(CNS(=O)(=O)/N=C2\NC(=O)NC2=C(Cl)Cl)cc1 | 180 | 650 |
| C[N+]1=C(/C=C/c2ccc(O)c3ncccc23)C(C)(C)c2ccccc21 | 3050 | 10600 |
| C#CCNC(=O)c1cccc2c1cc(C)n2-c1nc2c(c(NCc3ccccc3)n1)CCCC2 | 21.3 | 54.6 |
| NC(=O)NS(=O)(=O)c1ccc(N2N=C(C(F)(F)F)CC2c2cc(C(F)(F)F)cc(C(F)(F)F)c2)cc1 (centres undefined) | 2700 | 10900 |
| COc1ccc2c(c1)CCCN2c1c2ccccc2nc2ccccc12 | 386 | > 100000 |

| SMILES | GI50 [nM] | TGI [nM] |
| --- | --- | --- |
| O=C1C(Cl)=C(NCCN2CCOCC2)C(=O)c2ncccc21 | 1410 | 2910 |
| Cc1ccc2c(c1)Sc1c(ccc3ccccc13)N2 | 56200 | > 100000 |
| CCN(CC)CCCC(C)Nc1c2ccc(Cl)cc2nc2ccc(O)cc12 (centres undefined) | 1310 | 2910 |
| CCCC(=O)OCC1OC(n2cnc3c(=S)nc[nH]c32)C(OC(=O)CCC)C1OC(=O)CCC (centres undefined) | 802 | 45000 |
| CCCn1c(=S)sc2c1nc(C)n1c(Nc3ccccc3)nnc21 | 2030 | 13000 |
| COc1ccc(-c2nc(-c3nc4ccc(Cl)cc4[nH]3)c3ccccn23)cc1 | 1990 | 6760 |
| Cc1cc(-c2cnn3c(NCC4CC(C)(O)C4)cc(Oc4cccnc4)nc23)ccc1C(=O)NC1CC1 (centres undefined) | 2080 | > 100000 |
| CC/C=C\C[C@H](F)C/C=C1/C(=O)C=C[C@@H]1C/C=C\CCCC(=O)O | 3850 | 11500 |
| O=C(O)CCNC1CCCCC1 | > 100000 | > 100000 |
| O=C(Nc1ccc(-c2nc(N3CCOCC3)c3cccn3n2)cc1)Nc1cccnc1 | 69.2 | 570 |
| O=C(Nc1ccncc1)C(=O)c1cn(S(=O)(=O)c2cccc(F)c2)c2ccccc12 | 1260 | 8380 |
| CCCCCCCCn1ccc2cc(NC(=O)Cn3cc(CN4CCCC4)nn3)ccc21 | 1630 | 3170 |
| CCOCC(=O)N[C@H]1CCc2cc(OC)c(OC)c(OC)c2-c2ccc(OC)c(=O)cc21 | < 10 | > 100000 |
| COc1cc2cc(Oc3ccc(NC(=O)Nc4ccc(Cl)c(C(F)(F)F)c4)cc3)c(C)nc2cc1OCCN1CCOCC1 | 474 | 2060 |
| Cc1ccc(-c2nc3nc(-c4ccccc4)nc(N4CCCNCC4)c3o2)cc1 | 1590 | 3350 |
| COc1cc2ncn(-c3cc(OCc4cccs4)c(C(N)=O)s3)c2cc1OC | 654 | 6410 |
| CNC(=O)c1cc(-c2ccc(NC(=O)Nc3ccc(N4CCN(C)CC4)c(C(F)(F)F)c3)cc2)nc2cccnc12 | 14800 | 32900 |
| C#C[C@]1(O)CC[C@H]2[C@@H]3CC=C4c5sc(Nc6ncccc6C)nc5CC[C@]4(C)[C@H]3CC[C@@]21C | 1250 | 3230 |
| C=C(C[C@](O)(C(=O)/C=C/c1ccc(Cl)cc1)C(=O)OC)c1ccccc1 | 3760 | 13700 |
| COc1ccc(-c2cnc(NC(=O)CCCCCCNC(=O)C(O)(O)C(F)(F)F)s2)cc1 | 877 | 5560 |
| Nc1nccc(-c2c(-c3ccc(F)cc3)ncn2C2CCC(O)CC2)n1 (centres undefined) | 822 | 6360 |
